The series has as its system Human peripheral blood mononuclear cells (PBMCs). Put plainly: Induced cytokine secretion by PBMCs exposed for 24 hours, ELISA. The series is classed as cell-based. The note with it: 25 μg/mL, 24 hours, 300,000 PBMCs per well. As to the method: FIG. 10 is bar graph showing the induced secretion of IL-6 by PBMCs exposed to PolyIC, RNA248, DNA4, DNA10, PolyIC complexed with SEQ. ID NO. 4 (CAL2), RNA248 complexed with SEQ. ID NO. 4, DNA4 complexed with SEQ. ID NO. 4, DNA10 complexed with SEQ. ID NO. 4, DNA4 and RNA248 complexed with SEQ. ID NO. 4, Pam(2)CSK4-conjugated SEQ. ID NO. 4 complexed with DNA4 and SEQ. ID NO. 4 alone. Each well contained ˜300,000 fresh PBMCs in a total volume of 100 μL of RPMI medium. Solutions of SEQ. ID NO. 4, PolyIC, DNA4, DNA10, Pam(2)CSK4-conjugated SEQ. ID NO. 4 were all pre-mixed to concentrations of 50 ug/mL (for each peptide reagent) and then added to wells in volumes of 100 uL, such that each well contained a 200 uL volume of PBMCs and reagents. Wells were run in triplicate and the mean value is indicated.
A series of in vitro experiments was conducted to characterize the immune-stimulating properties of the MM and their sub-components. Human peripheral blood mononuclear cells (PBMCs) were exposed to a MM containing SEQ. ID NO. 4 and its individual molecular sub-components for 24 hours. For reference, the PBMCs were separately exposed to PolyIC. After this time, the induced secretion of following cytokines by PBMCs was measured: interleukin-6 (IL-6), interleukin-10 (IL-10), interleukin-12 (IL-12), interleukin-15 (IL-15), tumor necrosis factor alpha (TNF-alpha), interferon-alpha (IFN-alpha), and interferon-gamma (IFN-gamma). Experiments were conducted as follows. 150 mL of blood was supplied by a human volunteer and PBMCs were isolated by Ficoll-Paque gradient centrifugation immediately after venipuncture. PBMCs were incubated for 24 hours at 37° C./5% CO2 in 96-well plates, with 300,000 PBMCs per well in a 200 μL medium containing 49% RPMI-1640/49% PBS/1% L-glutamine/1% penicillin-streptomycin and the components in Table 3 at a concentration of 25 μg/mL. All cytokines were measured in triplicate.
After 24 hours, the supernatant from each well was isolated using centrifugation at 3000 g and immediately thereafter cytokines were measured using ELISA kits from Genway Biotech (San Diego, Calif.) and Origene (Rockville, Md.). Per ELISA kit instructions, 100 μL of supernatant was used for each readout. The results are provided in FIGS. 10-16, where the mean of each measurement is provided. (In no instance did the standard deviation exceed 30%.)

On to “5′-TCGTCGGTTTCGGCGCGCGCCG-3′ (DNA, all phosphorothioate, methylation of C not given here) [DNA4]”, for which the “cytokine secretion overall (seven cytokines measured)” value (from here on “cytokine secretion overall”) is “minimal cytokine secretion”, the “induced secretion of IFN-alpha” value is reported as “somewhat immunogenic”, the “induced secretion of IL-12” value was “does not induce secretion of high amounts” and the “induced secretion of IL-15” value is recorded as “does not induce secretion of high amounts”.
Turning to “5′-TTCGGCGCGCGCGCGCGCGCGCCGTT-3′ (DNA, all phosphorothioate, methylation of C not given here) [DNA10]”, the “cytokine secretion overall” value is “minimal cytokine secretion”.
Still for that read-out and setting: with “5′-guuggugguugugugagcgu-3′ (GUUGGUGGUUGUGUGAGCGU; listed as RNA, chemistry not fully specified) [RNA248]” the entry was “minimal cytokine secretion”.
For “RRHRKRRLSTCMLGTYTQDFNKFHTFPQTAI (Linker Sequence + synthetic peptide corresponding to calcitonin) [CAL2]”, the “cytokine secretion overall” value is given as “very minimal cytokine secretion”.

The values are drawn from patent US9839681B1, “Size tunable microbial mimetics for immunotherapy of cancer” (priority 2017, dated 2017).
